Measurements: US9765105B2, “Macrolide compound” (Pulike Biological Engineering, Inc., priority 2013, dated 2017)

Key:
Assay in all cases: in vitro susceptibility, MIC by mini broth dilution
Format in all cases: cell-based
[1] = test system: Staphylococcus aureus CVCC26003; settings: strain CVCC26003
Outline: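 MICs were determined by mini broth dilution under NCCLS standards in CAMHB, using revived S. aureus CVCC26003 subcultured 20 h at 35° C. Compounds were two-fold serially diluted in DMSO across 11 wells, with duplicate rows. Bacterial suspension was diluted 1:200 in medium before inoculation.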

[2] = test system: Actinobacillus pleuropneumoniae CVCC262; settings: strain CVCC262
Outline: (§1)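 MICs determined by mini broth dilution per NCCLS (now CLSI) standards. Strains revived from −20° C, subcultured twice on solid medium at 35° C for 20 h; compounds two-fold serially diluted in DMSO over 11 gradients, duplicate rows, bacterial suspension diluted 1:200 in liquid medium.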

[3] = test system: Haemophilus parasuis
Outline: as §1

[4] = test system: Pasteurella multocida CVCC399; settings: strain CVCC399
Outline: as §1

[5] = test system: Streptococcus equines CVCC556; settings: strain CVCC556
Outline: as §1

Compound	MIC values, Staphylococcus aureus CVCC26003 [1] [ug/mi]	MIC values, Actinobacillus pleuropneumoniae CVCC262 [2] [ug/mi]	MIC values, Haemophilus parasuis [3] [ug/mi]	MIC values, Pasteurella multocida CVCC399 [4] [ug/mi]	MIC values, Streptococcus equines CVCC556 [5] [ug/mi]
CCCN1C[C@H](C)[C@@H](O)[C@](C)(O)[C@@H](CC)OC(=O)[C@H](C)[C@@H](O[C@H]2C[C@@](C)(OC)[C@](O)(CNCCc3ccncc3)[C@H](C)O2)[C@H](C)[C@@H](O[C@@H]2O[C@H](C)C[C@H](N(C)C)[C@H]2O)[C@](C)(O)C[C@H]1C [syzx-191]	1	0.5	0.5	4	0.5
CCCN1C[C@H](C)[C@@H](O)[C@](C)(O)[C@@H](CC)OC(=O)[C@H](C)[C@@H](O[C@H]2C[C@@](C)(OC)[C@](O)(CNCc3ccccc3F)[C@H](C)O2)[C@H](C)[C@@H](O[C@@H]2O[C@H](C)C[C@H](N(C)C)[C@H]2O)[C@](C)(O)C[C@H]1C [syzx-192]	4	4	4	4	0.5
CCCN1C[C@H](C)[C@@H](O)[C@](C)(O)[C@@H](CC)OC(=O)[C@H](C)[C@@H](O[C@H]2C[C@@](C)(OC)[C@](O)(CNc3ccc(Cl)cc3C)[C@H](C)O2)[C@H](C)[C@@H](O[C@@H]2O[C@H](C)C[C@H](N(C)C)[C@H]2O)[C@](C)(O)C[C@H]1C [syzx-197]	0.25	0.5	0.25	1	0.25
CCCCN(C)C[C@]1(O)[C@H](C)O[C@@H](O[C@H]2[C@H](C)[C@@H](O[C@@H]3O[C@H](C)C[C@H](N(C)C)[C@H]3O)[C@](C)(O)C[C@@H](C)N(CCC)C[C@H](C)[C@@H](O)[C@](C)(O)[C@@H](CC)OC(=O)[C@@H]2C)C[C@@]1(C)OC [syzx-198]	1	0.5	0.5	4	0.5
CCCN1C[C@H](C)[C@@H](O)[C@](C)(O)[C@@H](CC)OC(=O)[C@H](C)[C@@H](O[C@H]2C[C@@](C)(OC)[C@](O)(CNc3nc(Cl)cc(Cl)n3)[C@H](C)O2)[C@H](C)[C@@H](O[C@@H]2O[C@H](C)C[C@H](N(C)C)[C@H]2O)[C@](C)(O)C[C@H]1C [syzx-202]	2	2	4	2	0.25

Other lines, results leading:

MIC values, Staphylococcus aureus CVCC26003 [1] [ug/mi]	MIC values, Actinobacillus pleuropneumoniae CVCC262 [2] [ug/mi]	MIC values, Haemophilus parasuis [3] [ug/mi]	MIC values, Pasteurella multocida CVCC399 [4] [ug/mi]	MIC values, Streptococcus equines CVCC556 [5] [ug/mi]	Compound
0.25	0.5	0.25	1	0.25	CCCN1CC(C)C(O)C(C)(O)C(CC)OC(=O)C(C)C(OC2CC(C)(OC)C(O)(CNCCN3CCCC3)C(C)O2)C(C)C(OC2OC(C)CC(N(C)C)C2O)C(C)(O)CC1C (stereo not drawn) [syzx-190]
4	4	2	2	0.25	CCCN1C[C@H](C)[C@@H](O)[C@](C)(O)[C@@H](CC)OC(=O)[C@H](C)[C@@H](O[C@H]2C[C@@](C)(OC)[C@](O)(CNCC3CCNCC3)[C@H](C)O2)[C@H](C)[C@@H](O[C@@H]2O[C@H](C)C[C@H](N(C)C)[C@H]2O)[C@](C)(O)C[C@H]1C [syzx-193]
1	1	0.5	0.25	1	CCCN1C[C@H](C)[C@@H](O)[C@](C)(O)[C@@H](CC)OC(=O)[C@H](C)[C@@H](O[C@H]2C[C@@](C)(OC)[C@](O)(CNC3CCCCCC3)[C@H](C)O2)[C@H](C)[C@@H](O[C@@H]2O[C@H](C)C[C@H](N(C)C)[C@H]2O)[C@](C)(O)C[C@H]1C [syzx-203]
4	4	4	4	0.5	CCCN1C[C@H](C)[C@@H](O)[C@](C)(O)[C@@H](CC)OC(=O)[C@H](C)[C@@H](O[C@H]2C[C@@](C)(OC)[C@](O)(CN3CCOCC3)[C@H](C)O2)[C@H](C)[C@@H](O[C@@H]2O[C@H](C)C[C@H](N(C)C)[C@H]2O)[C@](C)(O)C[C@H]1C [syzx-204]
